*1 amine or outer side, *2 acyl side, *3 side chain or, on linkers, in order; H or OH if unused. Where a SMILES comes first, the peptide text is derived from it. [ ]: non-standard residue; d: D form. X2 = [N-]=[N+]=CC(=O)CC[C@@H](N[*:1])C(=O)[*:2]; DON = [N-]=[N+]=CC(=O)CC[C@H](N)C(=O)O

One assay has as its target T1, tumor associated TG2 (Mus musculus, UniProt P21981).
T1 construct: from tissue; host or cells: intracranial DBT glioblastoma tumours from dosed mice
T1 sequence (P21981 1-686): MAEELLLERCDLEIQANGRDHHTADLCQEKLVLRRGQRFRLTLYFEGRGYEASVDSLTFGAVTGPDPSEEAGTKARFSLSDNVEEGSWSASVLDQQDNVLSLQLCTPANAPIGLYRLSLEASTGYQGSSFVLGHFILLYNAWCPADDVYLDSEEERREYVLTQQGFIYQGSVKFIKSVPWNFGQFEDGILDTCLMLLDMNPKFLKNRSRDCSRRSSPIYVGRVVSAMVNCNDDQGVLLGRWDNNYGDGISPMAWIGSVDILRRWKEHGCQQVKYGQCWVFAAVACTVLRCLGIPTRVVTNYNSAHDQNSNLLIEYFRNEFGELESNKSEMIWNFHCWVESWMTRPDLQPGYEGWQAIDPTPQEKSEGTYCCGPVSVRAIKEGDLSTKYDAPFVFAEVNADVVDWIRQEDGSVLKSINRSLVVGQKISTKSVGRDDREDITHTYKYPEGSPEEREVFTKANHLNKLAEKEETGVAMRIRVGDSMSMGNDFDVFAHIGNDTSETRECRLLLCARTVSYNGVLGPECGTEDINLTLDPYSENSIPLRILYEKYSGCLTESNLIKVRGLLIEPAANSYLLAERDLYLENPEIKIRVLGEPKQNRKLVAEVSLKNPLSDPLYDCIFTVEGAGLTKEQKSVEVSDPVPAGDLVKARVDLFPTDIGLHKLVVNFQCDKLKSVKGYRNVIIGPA
In words: Intracranial DBT tumor associated TG2 activity after dosing. It counts as in vivo, mice. As for the experimental part: To test whether therapeutic doses of KCC009 can modulate TG2 activity associated with intracranial glioblastomas, DBT tumors were injected intracranially in mice. As judged by MRI, the mice consistently established intracranial tumors after 7-10 days following injections, which, if untreated, caused death by 2-3 weeks. In an initial dose-finding experiment, cohorts of mice were administered 4 daily doses of vehicle or KCC009 (12.5 mg/kg, 25 mg/kg and 50 mg/kg) starting on day 11 after intra-cranial injections. Twenty-four hours later, the mice were sacrificed and tumors analyzed. […] Based on these findings a dose of 35 mg/kg was used for subsequent experiments in mice harboring intracranial DBT tumors.
As summarized in Table 4, KCC009 treatment led to significant suppression of TG2 activity after 15 min, whereas enzyme activity recovers fully by 24 h. Both uninhibited and inhibited activity levels are consistent with similar measurements in the small intestinal mucosa (data not shown).

Assay [1] deals with T2, human TG2 (Homo sapiens, UniProt P21980).
T2 sequence (P21980 1-687): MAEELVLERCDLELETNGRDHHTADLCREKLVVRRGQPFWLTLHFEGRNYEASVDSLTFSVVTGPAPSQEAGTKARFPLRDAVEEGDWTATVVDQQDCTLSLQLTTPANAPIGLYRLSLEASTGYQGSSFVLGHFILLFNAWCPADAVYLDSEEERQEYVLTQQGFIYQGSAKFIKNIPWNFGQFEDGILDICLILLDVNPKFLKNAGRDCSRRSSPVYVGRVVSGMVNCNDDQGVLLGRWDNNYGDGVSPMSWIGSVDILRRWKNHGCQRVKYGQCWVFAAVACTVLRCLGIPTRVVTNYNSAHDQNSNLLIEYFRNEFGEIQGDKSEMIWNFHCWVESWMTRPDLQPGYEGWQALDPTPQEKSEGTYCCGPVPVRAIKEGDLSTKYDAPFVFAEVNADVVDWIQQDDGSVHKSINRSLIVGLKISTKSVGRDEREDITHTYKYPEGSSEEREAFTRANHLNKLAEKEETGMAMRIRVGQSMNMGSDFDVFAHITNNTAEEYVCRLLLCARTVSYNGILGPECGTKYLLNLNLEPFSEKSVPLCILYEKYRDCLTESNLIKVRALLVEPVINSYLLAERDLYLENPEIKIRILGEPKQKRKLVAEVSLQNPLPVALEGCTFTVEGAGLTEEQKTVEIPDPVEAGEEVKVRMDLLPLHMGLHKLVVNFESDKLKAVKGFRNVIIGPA
To be noted: cited from earlier work.

Assay [2] has as its target T2, human TG2. In words: TG2 inhibition kinetics by the method of Hausch et al. The assay is classed as biochemical. The arrangement: ki/KI: unit not given here. An excerpt: Earlier disclosures had reported the synthesis and evaluation of a promising peptidic inhibitor of human TG2, (SEQ ID NO:1) Ac-Pro-Gln-Pro-DON-Leu-Pro-Phe-NH2. We now disclose a truncated analog that is easier to synthesize and has greater activity.
Characterization: (SEQ ID NO:3) Ac-Pro-DON-Leu-Pro-Phe-NH2 was characterized by the method of Hausch et al. (Hausch et al., Chem. Biol. (2003) 10, 225-231).

Assay [3] concerns the target T3, recombinant human tissue transglutaminase (Homo sapiens, UniProt P21980).
T3 construct: made in house
T3 sequence (P21980 1-687): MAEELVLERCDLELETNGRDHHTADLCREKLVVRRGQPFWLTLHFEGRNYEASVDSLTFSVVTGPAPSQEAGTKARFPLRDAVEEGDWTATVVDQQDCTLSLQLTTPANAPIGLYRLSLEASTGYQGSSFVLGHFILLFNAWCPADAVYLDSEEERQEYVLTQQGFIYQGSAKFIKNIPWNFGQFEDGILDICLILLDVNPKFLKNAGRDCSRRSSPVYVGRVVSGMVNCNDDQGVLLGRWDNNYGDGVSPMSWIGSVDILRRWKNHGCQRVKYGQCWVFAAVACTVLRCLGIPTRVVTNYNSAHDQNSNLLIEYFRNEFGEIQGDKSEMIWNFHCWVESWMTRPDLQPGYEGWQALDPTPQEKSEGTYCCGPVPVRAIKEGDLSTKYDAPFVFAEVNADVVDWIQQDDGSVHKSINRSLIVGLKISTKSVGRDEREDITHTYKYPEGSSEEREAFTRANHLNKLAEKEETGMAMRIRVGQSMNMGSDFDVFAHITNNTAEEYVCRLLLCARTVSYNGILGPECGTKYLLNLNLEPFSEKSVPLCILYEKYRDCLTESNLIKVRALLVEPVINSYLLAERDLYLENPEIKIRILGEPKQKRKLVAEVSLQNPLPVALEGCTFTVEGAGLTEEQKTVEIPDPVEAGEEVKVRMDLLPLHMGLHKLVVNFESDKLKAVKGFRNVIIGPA
As to the kind of experiment: tTGase inhibition assay, residual activity by glutamate dehydrogenase coupled assay. The assay is classed as biochemical. The following applies: dihydroisoxazoles, Table 1.

Assay [4] concerns the target T4, bovine epidermal transglutaminase (Bos taurus, UniProt A6QP57).
T4 sequence (A6QP57 1-691): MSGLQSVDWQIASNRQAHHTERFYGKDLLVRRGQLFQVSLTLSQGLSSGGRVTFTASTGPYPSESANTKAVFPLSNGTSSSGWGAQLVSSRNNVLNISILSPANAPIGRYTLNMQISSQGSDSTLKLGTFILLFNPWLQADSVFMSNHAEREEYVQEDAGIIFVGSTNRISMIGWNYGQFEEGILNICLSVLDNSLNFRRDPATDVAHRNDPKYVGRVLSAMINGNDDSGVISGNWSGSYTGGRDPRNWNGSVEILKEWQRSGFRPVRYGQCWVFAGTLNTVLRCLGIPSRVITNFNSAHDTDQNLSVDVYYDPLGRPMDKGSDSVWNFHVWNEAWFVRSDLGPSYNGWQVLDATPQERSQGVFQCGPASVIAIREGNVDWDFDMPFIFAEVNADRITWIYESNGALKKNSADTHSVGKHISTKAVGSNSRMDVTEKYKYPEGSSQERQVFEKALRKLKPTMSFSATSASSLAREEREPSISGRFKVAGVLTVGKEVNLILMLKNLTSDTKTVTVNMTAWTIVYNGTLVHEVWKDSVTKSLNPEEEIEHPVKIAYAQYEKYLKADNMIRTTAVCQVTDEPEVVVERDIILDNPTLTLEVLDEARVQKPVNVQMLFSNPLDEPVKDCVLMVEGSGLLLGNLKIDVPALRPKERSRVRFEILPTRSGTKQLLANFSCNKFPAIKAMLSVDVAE
The following applies: cited from earlier work.

The target of assay [5] is T5, human TG2 (tissue transglutaminase, transglutaminase 2) (human, UniProt P21980 1-687, limits assumed).
T5 construct: also called tTGase; tTG
T5 sequence (looked up): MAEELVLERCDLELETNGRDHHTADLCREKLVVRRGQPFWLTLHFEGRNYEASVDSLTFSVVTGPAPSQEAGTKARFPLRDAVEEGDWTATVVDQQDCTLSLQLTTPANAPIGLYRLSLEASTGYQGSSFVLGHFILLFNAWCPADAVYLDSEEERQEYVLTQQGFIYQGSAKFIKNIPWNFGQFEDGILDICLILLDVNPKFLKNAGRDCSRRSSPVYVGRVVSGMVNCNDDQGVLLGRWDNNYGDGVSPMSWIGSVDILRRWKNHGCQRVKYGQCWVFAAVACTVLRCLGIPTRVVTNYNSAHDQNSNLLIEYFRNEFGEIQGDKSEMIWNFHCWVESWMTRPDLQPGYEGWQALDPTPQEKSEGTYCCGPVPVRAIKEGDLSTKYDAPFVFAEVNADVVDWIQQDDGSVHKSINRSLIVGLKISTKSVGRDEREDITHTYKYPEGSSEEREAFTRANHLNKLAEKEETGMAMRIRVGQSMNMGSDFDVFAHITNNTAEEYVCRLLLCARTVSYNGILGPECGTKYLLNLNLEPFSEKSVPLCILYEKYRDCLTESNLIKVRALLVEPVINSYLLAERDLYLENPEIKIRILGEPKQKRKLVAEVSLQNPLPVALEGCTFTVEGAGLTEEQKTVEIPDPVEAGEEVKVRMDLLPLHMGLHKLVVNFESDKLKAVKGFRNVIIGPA
In words: TG2 enzyme inactivation kinetics by the method of Hausch et al.

As to `O=NN(CCCl)C(=O)NCCCl` [BCNU, reference compound], the “TG2 activity-BCNU alone” value at tumor associated TG2 (15 min after last of four daily doses) is given as 2.1 ± 0.2 (n = 4) nmol/h/mg protein; at tumor associated TG2 (24 h after last of four daily doses) it was 2.2 ± 0.3 (n = 2) nmol/h/mg protein.
In the case of `CC(=O)CSc1n(C)c(C)c(C)[n+]1C.[Cl-]` [L682777], the “inhibition of human TG2” value on human TG2 [1] was “inhibits human TG2”.
For `CC(=O)N1CCC[C@H]1C(=O)N[C@H](CCC(=O)C=[N+]=[N-])C(=O)N[C@@H](CC(C)C)C(=O)N1CCC[C@H]1C(=O)N[C@@H](Cc1ccccc1)C(N)=O` [Ac-Pro-DON-Leu-Pro-Phe-NH2] (Ac-P[X2]LPF-NH2), at human TG2 [2], the ki is 0.5 min⁻¹ and the ki/KI amounted to 8.3.
`O=C(N[C@@H](Cc1ccccc1)C(=O)NCC1CC(Br)=NO1)OCc1ccccc1` (stereo partly drawn) [Compound 49, {(S)-1-[(3-Bromo-4,5-dihydro-isoxazol-5-ylmethyl)-carbamoyl]-2-phenyl-ethyl}-carbamic acid benzyl ester]: the kinh in assay [3] was found to be 1.4 min⁻¹. Besides, the “inhibition of bovine epidermal transglutaminase” value in assay [4] is reported as “is an inhibitor”.
Take `O=C(C[C@H](NC(=O)OCc1ccccc1)C(=O)NCC1CC(Br)=NO1)NCc1ccccc1` (stereo partly drawn) [Compound 56, {(S)-2-Benzylcarbamoyl-1-[(3-bromo-4,5-dihydro-isoxazol-5-ylmethyl)-carbamoyl]-ethyl}-carbamic acid benzyl ester]: in assay [3], the Ki was 240 µM, the kinh worked out at 0.54 min⁻¹ and the kinh/Ki was 2300 min^−1M^−1.

B1: Ac-Pro-DON-Leu-Pro-Phe-NH2 (DON=6-diazo-5-oxo-norleucine) (peptide)
peptide: Ac-P[DON]LPF-NH2
SMILES: CC(=O)N1CCC[C@H]1C(=O)N[C@@H](CCC(=O)C=[N+]=[N-])C(=O)N[C@@H](CC(C)C)C(=O)N1CCC[C@H]1C(=O)N[C@@H](Cc1ccccc1)C(N)=O
notes: Position 2 is the non-natural residue DON; also called truncated analog of Ac-Pro-Gln-Pro-DON-Leu-Pro-Phe-NH2
With B1, in assay [5], the Ki was 0.06 µM and the “ki (inactivation rate constant)” value was 0.5 min⁻¹.

The record behind these values is patent US8153593B2, “Transglutaminase inhibitors and methods of use thereof” (The Board of Trustees of the Leland Stanford Junior …, priority 2003, dated 2012).
